This is an account of results in patent US6150359A, “Naphthyridinones for inhibiting protein tyrosine kinase and cell cycle kinase mediated cellular proliferation” (Warner-Lambert Company, priority 2000, dated 2000).

Assay [1] concerns the target T1, PDGFr (mouse PDGF-β receptor tyrosine kinase) (Mus musculus, UniProt P05622).
T1 construct: PCR primers are designed to amplify a fragment of DNA that codes for the intracellular tyrosine kinase domain; made in house; host or cells: Sf9 insect cells (baculovirus), cell lysate
Nature of the assay: PDGFr tyrosine kinase assay, 32P incorporation into glutamate-tyrosine copolymer. Format: biochemical. Conditions: 50 μM ATP.

Another assay deals with HCT-8 cells. Nature of the assay: Human Colon Carcinoma Growth Delay Assay, HCT-8. Format: cell-based. The settings on record: 72 h, HCT-8, 3 days. The method, then:
Human Colon Carcinoma Growth Delay Assay. Human colon carcinoma cells are seeded into 96-well tissue culture plates in a final volume of 180 μL of 10% fetal bovine serum containing growth media and allowed to incubate overnight (37° C., 5% CO2, 95% air). Cells of the SW-620 cell line are seeded at 1.0-1.5×10^4 cells per well. Cells of the HCT-8 and HT-29 cell lines are seeded at 2-4×10^3 cells per well. Serially diluted drug solutions are prepared in growth medium at 10 times concentration; 20 μL of these solutions are added to duplicate wells and incubated with the cells for 3 days in a cell culture incubator. At the end of the incubation period, cells are fixed with 100 μL per well of 10% trichloroacetic acid after removing the drug/culture medium. The plates are washed five times with tap water and stained with 100 μL per well of 0.075% sulfrhodamine B in 1% acetic acid for 10 minutes. The plates are rinsed four times and allowed to air dry. The stain in the wells are solubilized by the addition of 10 mM unbuffered Tris base and the absorbance read using a microtiter plate optical reader. Inhibition of cell growth is calculated from absorbance data of the treated cells compared to untreated control cells.

Another assay addresses T2, insulin receptor (INSr) (Homo sapiens, UniProt P06213).
T2 construct: An assay using the intracellular kinase domains of insulin receptor (INSr)
Nature of the assay: Insulin receptor (INSr) kinase assay. Format: biochemical. Conditions: 10 mM manganese chloride. The protocol:
(§1) EGFr. Enzyme assays for IC50 determinations are performed in 96-well filter plates (Millipore MADVN6550). The total volume is 0.1 mL containing 20 mM Hepes, pH 7.4, 50 μM sodium vanadate, 40 mM magnesium chloride, 10 μM ATP containing 0.5 μCi of [^32 P]ATP, 20 μg of polyglutamic acid/tyrosine (Sigma Chemical Co., St. Louis, Mo.), 10 ng of EGF receptor tyrosine kinase and appropriate dilutions of inhibitor. All components except the ATP are added to the well, and the plate is incubated with shaking for 10 minutes at 25° C. The reaction is started by adding [^32 P]ATP, and the plate is incubated at 25° C. for 10 minutes. The reaction is terminated by addition of 0.1 mL of 20% trichloroacetic acid (TCA). The plate is kept at 4° C. for at least 15 minutes to allow the substrate to precipitate. The wells are then washed five times with 0.2 mL of 10% TCA, and ^32 P incorporation is determined with a Wallac beta plate counter.
Other Kinases. An assay using the intracellular kinase domains of insulin receptor (INSr) is performed as described for the EGF receptor except that 10 mM manganese chloride is included in the reaction. The PKC assay is performed as previously described by Martiny-Baron, et al., J. Biol. Chem., 1993;268:9194-9197.

Assay [2] concerns the target T3, EGFr (Human EGF receptor tyrosine kinase) (Homo sapiens, UniProt P00533).
T3 construct: Human EGF receptor tyrosine kinase is isolated from A431 human epidermoid carcinoma cells; endogenous in cells; host or cells: A431 human epidermoid carcinoma cells (detergent lysate, Q Sepharose fractions)
Nature of the assay: EGFr tyrosine kinase assay. Format: biochemical. The settings on record: 10 μM ATP. The protocol:
Epidermal Growth Factor Receptor (EGFr). Human EGF receptor tyrosine kinase is isolated from A431 human epidermoid carcinoma cells by the following method. Cells were grown in roller bottles in 50% Dulbecco's Modified Eagle medium and 50% HAM F-12 nutrient media (Gibco) containing 10% fetal calf serum. Approximately 10^9 cells are lysed in two volumes of buffer containing 20 mM 2-(4N-[2-[…]]piperazin-1-yl)ethanesulfonic acid (Hepes), pH 7.4, 5 mM ethylene glycol bis(2-aminoethyl ether) N,N,N',N'-tetraacetic acid (EGTA), 1% Triton X-100, 10% glycerol, 0.1 mM sodium orthovanadate, 5 mM sodium fluoride, 4 mM pyrophosphate, 4 mM benzamide, 1 mM dithiothreitol (DTT), 80 μg/mL aprotinin, 40 μg/mL leupeptin, and 1 mM phenylmethylsulfonyl fluoride (PMSF). After centrifugation at 25,000×g for 10 minutes, the supernatant is applied to a fast Q sepharose column (Pharmacia) and eluted with a linear gradient from 0.1 M NaCl to 0.4 M NaCl in 50 mM Hepes, 10% glycerol, pH 7.4. Enzyme active fractions are pooled, divided into aliquots, and stored at -100° C.
as §1

T3 sequence (P00533 25-1210): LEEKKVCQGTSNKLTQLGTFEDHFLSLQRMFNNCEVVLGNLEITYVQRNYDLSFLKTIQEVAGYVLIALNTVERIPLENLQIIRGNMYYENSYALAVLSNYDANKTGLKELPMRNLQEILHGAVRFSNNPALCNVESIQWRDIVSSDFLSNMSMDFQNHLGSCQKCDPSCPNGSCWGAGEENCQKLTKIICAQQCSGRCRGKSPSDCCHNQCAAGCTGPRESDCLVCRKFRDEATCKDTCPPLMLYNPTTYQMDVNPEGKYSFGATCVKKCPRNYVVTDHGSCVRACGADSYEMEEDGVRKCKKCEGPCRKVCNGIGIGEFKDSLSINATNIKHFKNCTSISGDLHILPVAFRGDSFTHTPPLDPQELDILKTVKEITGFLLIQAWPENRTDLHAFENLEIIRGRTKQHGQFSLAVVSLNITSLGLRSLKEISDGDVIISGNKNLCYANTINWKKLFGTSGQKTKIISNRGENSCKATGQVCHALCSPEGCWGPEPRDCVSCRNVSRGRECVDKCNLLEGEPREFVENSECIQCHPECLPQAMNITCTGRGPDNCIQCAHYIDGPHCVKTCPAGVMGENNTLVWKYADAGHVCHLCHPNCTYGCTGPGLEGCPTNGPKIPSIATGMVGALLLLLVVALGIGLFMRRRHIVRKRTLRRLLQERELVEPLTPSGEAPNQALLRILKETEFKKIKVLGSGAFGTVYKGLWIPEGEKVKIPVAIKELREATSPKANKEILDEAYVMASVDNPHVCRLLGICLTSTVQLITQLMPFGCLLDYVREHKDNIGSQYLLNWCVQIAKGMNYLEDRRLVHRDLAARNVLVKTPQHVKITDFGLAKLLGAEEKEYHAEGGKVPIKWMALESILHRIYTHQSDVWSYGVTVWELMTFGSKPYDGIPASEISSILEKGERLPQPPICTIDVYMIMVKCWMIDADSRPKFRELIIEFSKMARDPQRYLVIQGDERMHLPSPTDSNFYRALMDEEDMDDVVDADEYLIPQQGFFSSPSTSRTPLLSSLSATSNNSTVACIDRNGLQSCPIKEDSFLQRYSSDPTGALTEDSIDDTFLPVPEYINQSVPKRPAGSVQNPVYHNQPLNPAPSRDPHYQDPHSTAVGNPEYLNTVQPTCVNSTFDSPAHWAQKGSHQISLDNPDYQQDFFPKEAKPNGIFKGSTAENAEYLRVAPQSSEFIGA
T2 sequence (P06213 1023-1298 limits assumed, species assumed): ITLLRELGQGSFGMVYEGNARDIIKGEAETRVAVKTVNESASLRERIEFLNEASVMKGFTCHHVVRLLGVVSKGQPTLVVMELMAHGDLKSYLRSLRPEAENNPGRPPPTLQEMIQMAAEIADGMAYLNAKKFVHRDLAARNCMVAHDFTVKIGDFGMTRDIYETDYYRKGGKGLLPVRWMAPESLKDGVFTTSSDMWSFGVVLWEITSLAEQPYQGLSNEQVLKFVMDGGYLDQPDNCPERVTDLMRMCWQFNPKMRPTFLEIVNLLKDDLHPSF
T1 sequence (P05622 599-961 limits assumed): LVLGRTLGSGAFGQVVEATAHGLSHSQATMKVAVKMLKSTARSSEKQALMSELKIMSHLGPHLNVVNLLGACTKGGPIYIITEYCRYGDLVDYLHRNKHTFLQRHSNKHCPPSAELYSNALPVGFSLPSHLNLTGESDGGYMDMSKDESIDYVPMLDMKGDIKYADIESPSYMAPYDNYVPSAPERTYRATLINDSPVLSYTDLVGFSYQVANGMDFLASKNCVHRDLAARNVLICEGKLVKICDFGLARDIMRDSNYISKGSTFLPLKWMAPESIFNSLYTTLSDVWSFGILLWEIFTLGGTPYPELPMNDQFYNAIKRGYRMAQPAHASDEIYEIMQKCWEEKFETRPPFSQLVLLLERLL

Turning to `CCN(CC)CCCCNc1cc2c(cn1)cc(-c1c(Cl)cccc1Cl)c(=O)n2C` [Example F, 3-(2,6-dichlorophenyl)-7-[4-(diethylamino)butylamino]-1-methyl-1H-[1,6]naphthyridin-2-one], the IC50 was 420 nM in assay [1], 2300 nM in the assay with HCT-8 cells, more than 50000 nM against insulin receptor (INSr) and 3800 nM in assay [2].
`CN1CCN(CCCNc2cc3c(cn2)cc(-c2c(Cl)cccc2Cl)c(=O)n3C)CC1` [Example H, 3-(2,6-dichlorophenyl)-1-methyl-7-[3-(4-methylpiperazin-1-yl)propylamino]-1H-[1,6]naphthyridin-2-one]: the IC50 in assay [1] was 890 nM; in the assay with HCT-8 cells, 2800 nM; against insulin receptor (INSr), more than 50000 nM; in assay [2] it was 3200 nM.
For the compound `CCN(CC)CCOc1ccc(Nc2cc3c(cn2)cc(-c2c(Cl)cccc2Cl)c(=O)n3C)cc1` [Example P, 3-(2,6-dichlorophenyl)-7-[(4-(2-(diethylamino)ethoxy)phenyl)amino]-1-methyl-1H-[1,6]naphthyridin-2-one], the IC50 in assay [1] was 90 nM; in the assay on HCT-8 cells it was 2800 nM; at insulin receptor (INSr), more than 50000 nM; in assay [2] it was 590 nM.
Regarding `CN1CCN(CCOc2ccc(Nc3cc4c(cn3)cc(-c3c(Cl)cccc3Cl)c(=O)n4C)cc2)CC1` [Example S, 3-(2,6-dichlorophenyl)-1-methyl-7-[(4-(2-(4-methylpiperazin-1-yl)ethoxy)phenyl)amino]-1H-[1,6]naphthyridin-2-one], the IC50 was 340 nM in assay [1] and 5200 nM in the assay on HCT-8 cells.

One may read the IC50 as the concentration that gives 50% inhibition.
